Test results: US7598393B2 (dated 2009)
Where a name gives a salt, the structure may show the parent alone.

Compound	melting point [°C]
CC(C)S(=O)(=O)c1ccc2c(c1)nc(CC1CC1)n2CC1CC1	107
CC(C)S(=O)(=O)c1ccc2c(c1)nc(CC1CCCC1)n2CC1CC1	137
CC(C)S(=O)(=O)c1ccc2c(c1)nc(CC1(C)CCCC1)n2CC1CC1	122
CC(C)(C)Cc1nc2cc(S(=O)(=O)c3ccccc3)ccc2n1CC1CC1	173
CCS(=O)(=O)c1ccc2c(c1)nc(CC(C)(C)C)n2CC1CCCO1 (stereo not drawn)	142
CC(C)S(=O)(=O)c1ccc2c(c1)nc(CC(C)(C)C)n2CC1(O)CCOCC1	189
CCS(=O)(=O)c1ccc2c(c1)nc(CC(C)(C)C)n2CC1(O)CCCC1	172
CCS(=O)(=O)c1cnc2c(c1)nc(CC(C)(C)C)n2CC1CCOCC1	191
CC(C)S(=O)(=O)c1cnc2c(c1)nc(CC(C)(C)C)n2CC1(O)CCOCC1	179
CC(C)S(=O)(=O)c1cnc2c(c1)nc(CC(C)(C)C)n2CCN(C)C	119
CC(C)S(=O)(=O)c1cnc2c(c1)nc(CC(C)(C)C)n2CC1CCOCC1	201
CCS(=O)(=O)c1ccc2c(c1)nc(CC(C)(C)C)n2CCOC(F)(F)F	133
CC(C)S(=O)(=O)c1ccc2c(c1)nc(CC(C)(C)C)n2CCN1CCOCC1	151
CC(C)S(=O)(=O)c1ccc2c(c1)nc(CC(C)(C)C)n2CCN(C)C	116
CC(C)(C)Cc1nc2cc(S(C)(=O)=O)ccc2n1CC1CC1 (as salt: hydrochloride)	217
